{"source": "patent US6936736B2", "about": "“Amide derivative” (Sumitomo Manufacturing Company Limited, priority 1997, dated 2005)", "key": {"[1]": {"system": "constant white light-induced retinal damage", "assay": "Experiment 1: protective effect against constant white light-induced retinal damage (ERG a-wave), intraperitoneal administration", "format": "in vivo, Male Wistar rats", "conditions": "rats, 50 mg/kg intraperitoneally twice, in 0.5% methylcellulose; ERG a-wave amplitude after two days constant light", "description": "Retinal outer nuclear cells have been known to be degenerated by the constant white light exposure to albino rats (L. M. Rapp, et al., New York: Plenum, 135 (1980)). Effectiveness of the compounds of formula 1, 2 or 3 or pharmaceutical acceptable salts thereof can be evaluated by their protective action against constant light exposure-induced retinal degeneration in rats. The present invention is embodied by the following experiment.\n(§1) Pharmacological Effect Against Constant White Light-induced Retinal Damage\n(§2) Male Wistar rats (7 weeks old, Charles River Japan Inc.) were purchased and maintained in cyclic light/dark environment (8:00-20:00/light term) for one week, and then placed within the apparatus for constant white light exposure for two days. The constant white light exposure apparatus is a covered breeding box of 1020 mm in length, 425 mm in width, 520 mm in height, which is made of acryl boards and of which all inner side are covered with mirrors. Light was continuously irradiated all the day long (24 hours) using white fluorescent lamp attached to the ceiling of the apparatus. The average illuminance in the apparatus was 174.2 foot candle. After two days in the apparatus, the rats were moved to a darkroom and dark adapted for 1-4 hours. The rats were anesthetized with pentobarbital and placed in a stereotaxic frame. After topical mydriatica was given and electrodes were put on corneal surface, center of the forehead and the lower part of the lobe, the response in active potential of retina to the flash stimulation with fixed energy was determined from the recorded ERG (electroretinogram). The damage of retina was evaluated by the decrease in the amplitude of ERG a-wave which originated from retinal outer nuclear cells (photoreceptors). Test compounds were intraperitoneally injected just before placing the rats into the constant light exposure apparatus and at the same time on the next day to investigate its protective effect.\nAccording to the experimental procedure described above, each test compound in the present invention, which was suspended or dissolved in 0.5% methylcellulose (MC) solution, was intraperitoneally administered twice to three rats in a group at the dose of 50 mg/kg. In the same way, 0.5% MC solution was intraperitoneally administered to the rats in MC group. The rats maintained in 12 hours cyclic light/dark environment were used for normal control group. The protection by the compounds against the retinal damage was represented as % recovery value, and the results were shown in Table 1. % recovery=(x−z)÷(y−z)×100 • x : a-wave amplitude in test compound group • y : a-wave amplitude in normal control group • z : a-wave amplitude in MC group"}, "[2]": {"system": "constant white light-induced retinal damage", "assay": "Experiment 2: protective effect against constant white light-induced retinal damage (ERG a-wave), administration of eye drops", "format": "in vivo", "conditions": "rats, 50 μl per once to both eyes, at 0, 3, 6, 9 and 24 hours", "description": "as §2, §1\n(§3) The protective effect of the compound of Examples by administration of eye drops was tested by the same method as Experiment 1. The tested compounds were administered immediately before rats were placed within the apparatus for constant white light exposure. Further, the eye drops were administered 3, 6, 9 and 24 hours after and the effect was evaluated.\n(§4) The compounds of the present invention were dissolved in 0.5% aqueous methylcellulose (MC) solution and each 50 μl of the solution per once was dropped to both eyes of 5 rats, according to the method of Experiment 1. In the same way, 0.5% MC solution was dropped to eyes of the rats in MC group.\nThe rats maintained in 12 hours cyclic light/dark environment were used for normal control group."}, "[3]": {"system": "constant white light-induced retinal damage", "assay": "Experiment 3: protective effect against constant white light-induced retinal damage (ERG a-wave), eye drops, several concentrations", "format": "in vivo", "conditions": "rats, 50 μl per once to both eyes", "description": "as §2, §3, §1\nThe compound of Example 50 was further tested by the same method as Experiment 2.\nas §4, with “compound” for “compounds”, “was” for “were”, “group. The rats maintained in 12 hours cyclic light/dark environment were used for normal control group.” for “group.”"}}, "data": [{"smiles": "CC(C)(C)NC(=O)c1ccc(F)cc1", "note": "[Example 6, N-t-Butyl-4-fluorobenzamide]", "values": [{"measurement": "% recovery (Mean ± S.E.M.)", "setting": "[1]", "result": "80.1 ± 8.9", "unit": "%"}]}, {"smiles": "CC(C)(C)NC(=O)c1ccccc1F", "note": "[Example 48, N-t-butyl-2-fluorobenzamide]", "values": [{"measurement": "% recovery (Mean ± S.E.M.)", "setting": "[2]; eye drops 3.2 mg/ml in 0.5% MC", "result": "15.0 ± 3.7", "unit": "%"}]}, {"smiles": "CC(C)(C)NC(=O)c1cc(F)ccc1F", "note": "[Example 25, N-t-Butyl-2,5-difluorobenzamide]", "values": [{"measurement": "% recovery (Mean ± S.E.M.)", "setting": "[2]; eye drops 1.2 mg/ml in 0.5% MC", "result": "16.2 ± 3.2", "unit": "%"}]}, {"smiles": "CC(C)(C)NC(=O)c1ccc(F)cc1F", "note": "[Example 1, N-t-Butyl-2,4-difluorobenzamide]", "values": [{"measurement": "% recovery (Mean ± S.E.M.)", "setting": "[2]; eye drops 2 mg/ml in 0.5% MC", "result": "11.6 ± 2.6", "unit": "%"}, {"measurement": "% recovery (Mean ± S.E.M.)", "setting": "[1]", "result": "95.5 ± 12.3", "unit": "%"}]}, {"smiles": "CC(C)(CO)NC(=O)c1ccc(F)cc1F", "note": "[Example 27, N-(2-Hydroxy-1,1-dimethylethyl)-2,4-difluorobenzamide]", "values": [{"measurement": "% recovery (Mean ± S.E.M.)", "setting": "[1]", "result": "45.7 ± 10.1", "unit": "%"}]}, {"smiles": "CC(C)(CO)NC(=O)c1ccc(Cl)cn1", "note": "[Example 47, N-(2-Hydroxy-1,1-dimethylethyl)-5-chloro-2-pyridinecarboxamide]", "values": [{"measurement": "% recovery (Mean ± S.E.M.)", "setting": "[1]", "result": "58.2 ± 2.7", "unit": "%"}]}, {"smiles": "CC(C)(C)NC(=O)c1ccc(Cl)cn1", "note": "[Example 40, N-t-Butyl-5-chloro-2-pyridinecarboxamide]", "values": [{"measurement": "% recovery (Mean ± S.E.M.)", "setting": "[1]", "result": "82.3 ± 25.6", "unit": "%"}]}, {"smiles": "CC(C)(C)NC(=O)c1ccc(Br)cc1F", "note": "[Example 49, N-t-butyl-4-bromo-2-fluorobenzamide]", "values": [{"measurement": "% recovery (Mean ± S.E.M.)", "setting": "[2]; eye drops 0.4 mg/ml in 0.5% MC", "result": "5.1 ± 1.8", "unit": "%"}]}, {"smiles": "CC(C)(C)NC(=O)c1cccc[n+]1[O-]", "note": "[Example 50, N-t-butyl-1-oxide-2-pyridinecarboxamide]", "values": [{"measurement": "% recovery (Mean ± S.E.M.)", "setting": "[2]; eye drops 10 mg/ml in 0.5% MC", "result": "19.1 ± 7.5", "unit": "%"}, {"measurement": "% recovery (Mean ± S.E.M.)", "setting": "[3]; eye drops 3 mg/ml in 0.5% MC", "result": "2.3 ± 3.8", "unit": "%"}, {"measurement": "% recovery (Mean ± S.E.M.)", "setting": "[3]; eye drops 10 mg/ml in 0.5% MC", "result": "6.9 ± 5.7", "unit": "%"}, {"measurement": "% recovery (Mean ± S.E.M.)", "setting": "[3]; eye drops 30 mg/ml in 0.5% MC, ** p < 0.01 vs solvent only (Dunnett)", "result": "17.4 ± 3.9** %"}, {"measurement": "% recovery (Mean ± S.E.M.)", "setting": "[3]; eye drops 60 mg/ml in 0.5% MC, ** p < 0.01 vs solvent only (Dunnett)", "result": "35.6 ± 2.7** %"}]}]}
